The experiment in a line: DPPH radical scavenging antioxidant test. In kind it is biochemical. Conditions: 517 nm; for Inhibition (radical scavenging inhibition): compound 3 μM in ethanol, 0.2 mL DPPH (0.75 mM), 30 min incubation in the dark. The procedure:
The antioxidant properties of the 8-(4-chlorobenzylideneamino)naphthalene-1,3-disulfonic acid were studied by adding 0.2 mL DPPH (0.75 mM)) to compound 8-(4-chlorobenzylideneamino)naphthalene-1,3-disulfonic acid (III) (3 μM) in ethanol. After 30 min of incubation in the dark, the absorbance was read against a blank at 517 nm. Ascorbic acid (vitamin C) was used as standard antioxidants (positive control). A blank sample was prepared by 0.2 ml of DPPH in 3 ml ethanol. A negative control sample was run using ethanol instead of the sample. The radical scavenging inhibition was calculated using the following equation: […]

SMILES strings stand for the structures.

For the compound `O=C1O[C@H]([C@@H](O)CO)C(O)=C1O` [vit c, Ascorbic acid, reference compound], the “Inhibition (radical scavenging inhibition)” value stood at 74%.

`O=S(=O)(O)c1cc(S(=O)(=O)O)c2c(/N=C/c3ccc(Cl)cc3)cccc2c1` [Product III, 8-(4-chlorobenzylideneamino)naphthalene-1,3-disulfonic acid]: the “Inhibition (radical scavenging inhibition)” value stood at 50%. For the same compound, the “antioxidant potential in DPPH in vitro test (in words)” value (DPPH, vitamin C as positive control) is reported as “high potential as an antioxidant compared to vitamin C”.

Values taken from patent US11970439B1, “8-(4-chlorobenzylideneamino)naphthalene-1,3-disulfonic acid as an antioxidant compound” (KING FAISAL UNIVERSITY, priority 2023, dated 2024).
